Columns and labels:
[1] = up to maximum bolus tested, 200 microliters every 6 hours (8 mL/kg per bolus; 32 mL/kg/day)
Experimental: In a separate experiment using the above conditions the tolerance of bolus injection of 100% oxygen gas was tested.

[2] = system: Clostridioides difficile ATCC 43255; details: for cure rate: mouse CDI model, 14 days follow-up; for survival: treatment study day 0 to 4, followed for 14 days after inoculum, 10 mice per group
From the text: Because of the more humanlike characteristics for mouse CDI model, it was chosen to evaluate enteric aerobization.
Administration of enteric aerobization therapies presented several challenges with the mouse model. Administration of experimental compounds in rodents is normally performed via gastric gavage using a solution of the test article. However, this could not be accomplished with enteric aerobization therapy because dissolving the mixture prior to administration would result in premature loss of oxygen effervescence before entering the intestine. Further, there is uncertainty that rodents reliably pass enteric coated capsules or tablets from the stomach to the intestine. […] Finally, the small capsule or tablet sizes required for rodent administration severely limits dosages.
Thirty C57BL/6 female mice (18-22 g) fitted with duodenal catheters externalized and fitted with access button ports were purchased from Charles River Laboratories and singly housed in a temperature and humidity-controlled room with a 12-hour light cycle. The mice were divided into 3 groups of 10.
The mice were pretreated with an antibiotic cocktail in their drinking water for 8 consecutive days. This antibiotic cocktail was composed of 1% glucose, 500 mcg/mL kanamycin, 44 mcg/mL gentamicin, 1062.5 units per milliliter colistin, 269 mcg/mL metronidazole, 156 mcg/mL ciprofloxacin, 100 mcg/mL ampicillin, and 56 mcg/mL vancomycin. The antibiotic cocktail and drinking water were replaced every 2 to 3 days. Five days prior to infection the antibiotic water was removed and normal drinking water was provided to the animals. Three days prior to infection the animals received a single dose of clindamycin 10 mg per kilogram via oral administration in a volume of 10 mL per kilogram.
On study Day 0 mice were inoculated with the bacterial suspension of 5×10^5 CFU Clostridioides difficile ATCC 43255 via oral gavage. Eight hours after inoculation administration of vehicle, antibiotic control, and test article was initiated according to the following. The vehicle a.k.a. infection control group of 10 mice received 80 μL per hour 100% pure nitrogen gas via duodenal catheter. The infection control group of 10 mice received 50 mg/kg vancomycin via oral gavage once daily. […] Administration was continued from study day 0 to study day 4, a total of 5 days. The mice were followed for 14 days after inoculum recording daily weights and clinical observations. Animals that appeared severely moribund were euthanized. At the end of the study all animals were humanely euthanized.

Row | Structure (SMILES) | adverse effects of bolus injection [1] | clinical severity (total clinical score) compared to infection control group ([2]; FIG. 9) | animals showing clinical signs of infection/recurrence in the 2nd week after inoculation, after treatment ([2]; days 8-14) | adverse effects due to gas infusion ([2]; efficacy experiments, 3.2 mL/kg/hr, 76.8 mL/kg/day) | cure rate [2] | survival [2]
1 | O=O [EAT, oxygen] | No adverse effects were observed | mildly ill | no recurrent infections | no adverse effects | 100% | 100%
2 | CN[C@H](CC(C)C)C(=O)N[C@H]1C(=O)N[C@@H](CC(N)=O)C(=O)N[C@H]2C(=O)N[C@H]3C(=O)N[C@H](C(=O)N[C@H](C(=O)O)c4cc(O)cc(O)c4-c4cc3ccc4O)[C@H](O)c3ccc(c(Cl)c3)Oc3cc2cc(c3O[C@@H]2O[C@H](CO)[C@@H](O)[C@H](O)[C@H]2O[C@H]2C[C@](C)(N)[C@H](O)[C@H](C)O2)Oc2ccc(cc2Cl)[C@H]1O [vancomycin, reference compound] |  |  |  |  | 30% | 100%

From US12274726B2, “Enteric aerobization therapy” (LPOXY THERAPEUTICS, INC., priority 2021, dated 2025)
